From ChEMBL document CHEMBL3112416, “Designing analogs of ticlopidine, a wall teichoic acid inhibitor, to avoid formation of its oxidative metabolites” (Bioorg Med Chem Lett, 2014)

Columns and labels:
[1] = test system: Staphylococcus aureus; experiment: Ratio of MIC for community acquired methicillin-resistant Staphylococcus aureus USA300 in presence of targocil to MIC for community acquired methicillin-resistant Staphylococcus aureus USA300 by checkerboard broth microdilution assay; assay type: functional
[2] = Displacement of UDP-[14C]GlcNAc from TarO (unknown origin) after 2.5 hrs by scintillation counting analysis
[3] = test system: Staphylococcus aureus; experiment: Ratio of MIC for community acquired methicillin-resistant Staphylococcus aureus USA300 in presence of cefuroxime to MIC for community acquired methicillin-resistant Staphylococcus aureus USA300 by checkerboard broth microdilution assay; assay type: functional

SMILES	fractional inhibitory concentration index (FICI) [1]	IC50 [2] [µM]	fractional inhibitory concentration index (FICI) [3]
c1cc2c(s1)CCNC2	2	4300	2
c1ccc(CN2CCc3ccccc3C2)cc1	1.3	270	0.63
Clc1ccccc1CN1CCCCC1	2	1100	2
Clc1ccccc1CN1CCCC1	2		2
CCN1CCN(Cc2ccccc2Cl)CC1	2		2
Clc1ccccc1CN1CCc2ccccc2C1	8.1	520	0.13
Clc1cccc(CN2CCc3ccccc3C2)c1	8.1	270	2
Clc1ccc(CN2CCc3ccccc3C2)cc1	8.1		2
Cc1ccccc1CN1CCc2ccccc2C1	8.1		0.13
Fc1ccccc1CN1CCc2ccccc2C1	8		0.25
O=[N+]([O-])c1ccccc1CN1CCc2ccccc2C1	8.3		0.19
FC(F)(F)c1ccccc1CN1CCc2ccccc2C1	8.3	350	0.094
c1ccc2c(c1)CCN(Cc1ccncc1)C2	2		2
c1ccc2c(c1)CCN(Cc1ccc3ccccc3c1)C2	8.1	220	0.31
Clc1ccccc1CN1CCC2CCCCC2C1 (stereo not drawn)	2		2
Clc1ccc2c(c1)CCN(Cc1ccccc1Cl)C2	4.5	190	2
Oc1ccc2c(c1)CN(Cc1ccccc1Cl)CC2	4.5		2
Clc1ccccc1C[n+]1ccc2ccccc2c1	2	> 5000	2
Clc1ccccc1CC1CCc2ccccc2N1 (stereo not drawn)	8.3	270	0.19
COC(=O)C(c1ccccc1Cl)N1CCc2ccccc2C1 (racemic)	8.2	190	0.19
O=C(O)C(c1ccccc1Cl)N1CCc2sccc2C1 (racemic)	2		0.75
O=C(O)C(c1ccccc1Cl)N1CCc2ccccc2C1 (racemic)	2	440	0.75
O=C(O)C(c1ccccc1C(F)(F)F)N1CCc2ccccc2C1 (racemic)	2		2
COC(=O)C(c1ccccc1C(F)(F)F)N1CCc2ccccc2C1 (racemic)	8.3		0.13
NC(=O)C(c1ccccc1C(F)(F)F)N1CCc2ccccc2C1 (racemic)	2		1
COC(=O)[C@H](c1ccccc1Cl)N1CCc2sccc2C1 [CLOPIDOGREL]	8.1	150	0.19
Clc1ccccc1CN1CCc2sccc2C1 [TICLOPIDINE]	8.3	150	0.13
